Measured values: publication PMC10464297, “Reevaluation of bromodomain ligands targeting BAZ2A” (Protein Science : A Publication of the Protein Society, 2023)
“Also recorded” adds a separate entry of the source.

Tests used:
BAZ2A bromodomain [1] = target: T1, BAZ2A bromodomain (Homo sapiens, UniProt Q9UIF9); test: Screening by co‐crystallization with BAZ2A bromodomain; assay type: binding
T1 construct: BAZ2A and BAZ2B bromodomains were produced; made in house
T1 sequence (Q9UIF9 1793-1897 limits assumed): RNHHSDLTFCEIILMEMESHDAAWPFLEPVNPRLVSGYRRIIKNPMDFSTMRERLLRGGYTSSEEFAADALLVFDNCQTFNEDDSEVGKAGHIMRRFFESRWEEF
Description: (§1) BAZ2A and BAZ2B bromodomains were produced and their activity evaluated by AlphaScreen as previously reported (Dalle Vedove et al., [2018]; Spiliotopoulos et al., [2017]). BAZ2A bromodomain was crystallized as detailed in an earlier work (Spiliotopoulos et al., [2017]). Diffraction data were collected at the Elettra Synchrotron Light Source (Trieste, Italy), XRD1 and XRD2 beamlines, and the European Synchrotron Radiation Facility (ESRF, Grenoble, France), ID30A‐1/MASSIF‐1 beamline. Data were processed and structures were solved as described elsewhere (Dalle Vedove et al., [2018]). Chemical synthesis of compounds UP39 and UZH23 has already been reported (Unzue et al., [2016]; Zhu et al., [2018]). A detailed description of cell culture methods and ITC protocol is provided in the Supporting Information.

BAZ2B bromodomain = target: T2, BAZ2B bromodomain (Homo sapiens, UniProt Q9UIF8); test: AlphaScreen binding competition, BAZ2B bromodomain; conditions: compound at 100 μM
T2 construct: BAZ2A and BAZ2B bromodomains were produced; made in house
T2 sequence (Q9UIF8 2060-2164 limits assumed): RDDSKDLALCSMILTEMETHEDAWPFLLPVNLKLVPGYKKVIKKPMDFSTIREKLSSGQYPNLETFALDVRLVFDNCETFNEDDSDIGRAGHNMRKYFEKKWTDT
Description: as §1
(§2) Figure S3. AlphaScreen competition binding assay for compounds UP39 and UZH23. The specific binding to the acetylated peptide relative to the control DMSO (y-axis) is plotted against the corresponding compound concentration in µM in log10 scale (x-axis).
(§3) (1 picture or pasted object on this page, not shown here)

BAZ2A bromodomain [2] = target: T1, BAZ2A bromodomain; test: AlphaScreen binding competition, BAZ2A bromodomain; conditions: compound at 100 μM
Description: as §1, §2, §3

[3] = tested on: first bromodomain of BRD4; set-up: method as in Hay et al., [2014]; Picaud et al., [2015]; conditions: ref Hay et al., [2014]; Picaud et al., [2015]; cited from earlier work
22Rv1 spheroids = test: Spheroid growth (3D), 22Rv1; assay type: cell-based
Procedure: (§4) Cell cultures, proliferation assay and spheroid gro wth
PC3 and 22Rv1 cells were cultured in RPMI 1640 medium containing 10% FBS, 1% penicillin-streptomycin and 2 m M L-glutamine. All cells were regularly tested for mycoplasma contamination. […]
Spheroids were obtained by plating PC3 and 22Rv1 cells in low -adhesion round bottom 96 -well plates. For 22Rv1, 2500 cells/well were seeded in 200 µl RPMI 1640; for PC3, 250 cells/well were seeded in 200 µl RPMI 1640 supplemented with 1.5% Matrigel. After seeding, the cells were centrifuged for 10 min at 1200 x g at 4°C. Spheroids were given 48 hours to form after seeding before adding the treatment or the carrier (0.1% DMSO). Medium supplemented with treatment/carrier was changed every 48 hours, for a total of 32 days for 22Rv1 and 16 days for PC3. Each spheroid was imaged in brightfield every day or every other day (after day 20), using a Leica DM IL microscope […]
(§5) equipped with a Leica DFC450C digital camera. The area of each spheroid was measured using ImageJ and the average area for each condition was calculated. The growth rate was analysed using the segmental linear regression algorithm of GraphPad Prism. The appropriateness of the model was evaluated by considering the R square values and the Replicates test (Suppl. Table 6). […]

PC3 spheroids = test: Spheroid growth (3D), PC3; assay type: cell-based
Procedure: (§6) Cell cultures, proliferation assay and spheroid gro wth […]
streptomycin and 2 m M L-glutamine. All cells were regularly tested for mycoplasma contamination. […]
Spheroids were obtained by plating PC3 and 22Rv1 cells in low -adhesion round bottom 96 -well […]
After seeding, the cells were centrifuged for 10 min at 1200 x g at 4°C. Spheroids were given 48 hours to form after seeding before adding the treatment or the carrier (0.1% DMSO). Medium supplemented with treatment/carrier was changed every 48 hours, for a total of 32 days for 22Rv1 and 16 days for PC3. Each spheroid was imaged in brightfield every day or every other day (after day 20), using a Leica DM IL microscope […]
as §5

[4] = tested on: 22Rv1 (AR‐positive) PCa cells; test: 2D proliferation assay (resazurin), 22Rv1; assay type: cell-based
Procedure: as §4
PC3 and 22Rv1 cells were cultured in RPMI 1640 medium containing 10% FBS, 1% penicillin-streptomycin and 2 m M L-glutamine. All cells were regularly tested for mycoplasma contamination.
For the proliferation assay, cells were counted with a hemocytometer and seeded in triplicates in 96-well plates (4 .5x10^3 cells/well for 22Rv1 and 2.0x103 for PC3) and let adhere overnight at 37°C, 5% CO2. The following day, the medium was replaced with RPMI 1640 containing either the carrier […]
(§7) transfected with siRNA for BAZ2A , RLUC or KIF11, as detailed below. The cells were incubated for 1, 3, 6 (PC3) and 9 days (22Rv1) and the medium containing either the carrier or the inhibitors was replaced every 3 day s. Cell proliferation and viability were determined at day 1, 3, 6 and 9 by adding 10% resazurin sodium salt solution (0. 03 mg/ml powder from Sigma -Aldrich) directly into each well and incubating them for 4h at 37°C, 5% CO 2. The absorbance at 570/600 nm was measured using a Varioskan plate reader. The reduction of the resazur in sodium salt was calculated using the formula: (Abs x – Abs 0. 1%DMSO day1)/(Abs 0. 1%DMSO day9 - Abs 0. 1%DMSO day1). The growth rate was analysed using the linear regression algorithm of GraphPad Prism. […]

[5] = tested on: PC3 (AR‐negative) PCa cells; test: 2D proliferation assay (resazurin), PC3; assay type: cell-based
Procedure: as §6
streptomycin and 2 m M L-glutamine. All cells were regularly tested for mycoplasma contamination.
For the proliferation assay, cells were counted with a hemocytometer and seeded in triplicates in 96-well plates (4 .5x10^3 cells/well for 22Rv1 and 2.0x103 for PC3) and let adhere overnight at 37°C, […]
as §7

CECR2 bromodomain = conditions: ref Ycas et al., [2020]; read-out: K D CECR2; cited from earlier work
BPTF = conditions: ref Ycas et al., [2020]; read-out: K D BPTF; cited from earlier work
BRD9 = conditions: ref Ycas et al., [2020]; read-out: K D BRD9; cited from earlier work
BAZ2A bromodomain [6] = target: T1, BAZ2A bromodomain; test: Isothermal titration calorimetry (ITC) on BAZ2A; assay type: binding
Description: It is worth noticing however that these values may be slightly overestimated. The presence of 0.25% DMSO in the ITC experiments leads to less favorable K D values as DMSO competes for binding to the conserved Asn (Lolli & Battistutta, [2013]; Navratilova et al., [2016]). […] Indeed, the change in sign of the entropic term observed for TP‐238 binding to BAZ2A (compared to BPTF and CECR2) closely resembles the effect reported for crotonyllysine binding to the TAF1 bromodomain (compared to Kac), also displacing an additional water molecule from the binding pocket (Flynn et al., [2015]). […]
Isothermal Titration Calorimetry
ITC experiments were performed using an MicroCal PEAQ-IT C microcalorimeter (Malvern Panalytical, UK) at 25°C with a stirring speed of 750 rpm in 20mM Tris pH 7. 8, 0. 2 M NaCl, 0. 2 mM TCEP and 0. 25% DMSO. For each experiment, one 0. 4 µl injection followed by eighteen 2 µl injections have been performed, with 150 seconds separating each injectio n. The inhibitors were tested at 70 µM in the cell with His -Baz2A in the syringe at 1 mM. A blank run with only the buffer was carried out (Suppl. Fig. S6). Data analysis was done with PE A Q-ITC Analysis software , fitting the curve with the ‘one site’ model.

[7] = 3D setting, GSK2801 25 μM, BAZ2‐ICR 25 μM, BI9564 20 μM

In the case of `CCC(=O)N1CCOc2c(cc(-c3ccc(OC)c(OC)c3)cc2OC[C@H]2CCCN(C)C2)C1` [I‐CBP112], the “located in BAZ2A Kac pocket by co‐crystallization” value (BAZ2A bromodomain [1]) is reported as “inability to act as BAZ2A inhibitors”, the “% residual binding BAZ2B (100 μM)” value (BAZ2B bromodomain) is reported as 96 ± 1% and the “% residual binding BAZ2A (100 μM)” value (BAZ2A bromodomain [2]) is reported as 98 ± 2%. For the same compound, the “off‐target activity on the first bromodomain of BRD4” value [3] was “weak off‐target activity”.

With `COc1cc(-c2cn(C)c(=O)c3cnccc23)c(OC)cc1CN(C)C` [BI9564] the “effect on growth of 22Rv1 spheroids” value (22Rv1 spheroids; [7]) was “reduced the growth of 22Rv1 spheroids”, the “slope2 (segmental linear regression of spheroid growth)” value (22Rv1 spheroids; 22Rv1 spheroids, 20 µM, after X0 = day 9) was 6998 and the “slope1 (segmental linear regression of spheroid growth)” value (22Rv1 spheroids; 22Rv1 spheroids, 20 µM, before X0 = day 9) was 12255. For the same compound, the “effect on growth of PC3 spheroids” value (PC3 spheroids; [7]) was “less effective on PC3”, the “slope2 (segmental linear regression of spheroid growth)” value (PC3 spheroids; PC3 spheroids, 20 µM, after X0 = day 6) was 69835 and the “slope1 (segmental linear regression of spheroid growth)” value (PC3 spheroids; PC3 spheroids, 20 µM, before X0 = day 6) was 28821. The “effect on 2D growth of 22Rv1 cells” value ([4]; 2D‐cell culture, 22Rv1) was “only moderately affected 22Rv1 cell growth; also recorded: limited activity only on 22Rv1 cells”, the “Slope (best-fit, linear regression of growth curve)” value ([4]; 22Rv1, 0.1 µM) was 0,1043 and the “Slope (best-fit, linear regression of growth curve)” value ([4]; 22Rv1, 0.25 µM) was 0,1062. The “Slope (best-fit, linear regression of growth curve)” value ([4]; 22Rv1, 0.5 µM) was 0,1057, the “Slope (best-fit, linear regression of growth curve)” value ([4]; 22Rv1, 1 µM) was 0,1046 and the “Slope (best-fit, linear regression of growth curve)” value ([4]; 22Rv1, 2.5 µM) was 0,09943. The “Slope (best-fit, linear regression of growth curve)” value ([4]; 22Rv1, 5 µM) was 0,09452, the “Slope (best-fit, linear regression of growth curve)” value ([4]; 22Rv1, 10 µM) was 0,08987 and the “Slope (best-fit, linear regression of growth curve)” value ([4]; 22Rv1, 20 µM) was 0,08043. The “effect on 2D growth of PC3 cells” value ([5]; 2D‐cell culture, PC3) was “completely inactive on PC3 cells”, the “Slope (best-fit, linear regression of growth curve)” value ([5]; PC3, 0.1 µM) was 0,1514 and the “Slope (best-fit, linear regression of growth curve)” value ([5]; PC3, 0.25 µM) was 0,1530. The “Slope (best-fit, linear regression of growth curve)” value ([5]; PC3, 0.5 µM) was 0,1594, the “Slope (best-fit, linear regression of growth curve)” value ([5]; PC3, 1 µM) was 0,1557 and the “Slope (best-fit, linear regression of growth curve)” value ([5]; PC3, 2.5 µM) was 0,1485. The “Slope (best-fit, linear regression of growth curve)” value ([5]; PC3, 5 µM) was 0,1453, the “Slope (best-fit, linear regression of growth curve)” value ([5]; PC3, 10 µM) was 0,1454 and the “Slope (best-fit, linear regression of growth curve)” value ([5]; PC3, 20 µM) was 0,1470.

In the case of `CN(C)CCCOc1ccc(-c2cc(NCCCn3cccn3)nc(S(C)(=O)=O)n2)cc1` [TP‐238], the “located in BAZ2A Kac pocket by co‐crystallization” value (BAZ2A bromodomain [1]) is listed as “located in the BAZ2A Kac pocket”, the Kd (CECR2 bromodomain) is listed as 10 nM and the Kd (BPTF) is listed as 120 nM. For the same compound, the “% residual binding BAZ2B (100 μM)” value (BAZ2B bromodomain) was 77 ± 2%, the Kd (BRD9) was 1100 nM and the Kd (BAZ2A bromodomain [6]; 25°C, 0.25% DMSO, read-out: K D BAZ2A) was 108000 ± 6000 nM. It also gave a TΔS (BAZ2A bromodomain [6]; BAZ2A) of 2.68 kcal/mol, a ΔG (BAZ2A bromodomain [6]; BAZ2A) of -5.41 kcal/mol and a ΔH (BAZ2A bromodomain [6]; BAZ2A) of -2.73 ± 0.07 kcal/mol. The “N (sites)” value (BAZ2A bromodomain [6]; BAZ2A, one site model) was 1 sites and the “% residual binding BAZ2A (100 μM)” value (BAZ2A bromodomain [2]) was 81 ± 3%.
